Source: a melting point compilation (Tetko et al.; mined from patent text by program, amines drawn as free bases though some values may be those of a salt)

Row | SMILES | melting point
1 | CCN1c2ncc(CCc3cccc(I)c3)cc2C(=O)N(C)c2ccc(Cl)nc21 | 143 to 145 °C
2 | CS(=O)(=O)OCCCc1ccc(OCc2ccccc2)cc1 | 74 to 75 °C
3 | CC(C)(CCl)C(=O)COc1ccc(-c2ccc(Cl)cc2)cc1 | 67 to 68 °C
4 | N#Cc1ccc2c(c1)CCN(C1CCC3(CC1)OCCO3)C2 | 127 °C
5 | Oc1ccc(C2CC(c3ccc(O)cc3)C2)cc1 (centres undefined) | 148 to 164 °C
6 | COC(=O)c1ccc(C#CCc2cccc3c2OCCC3(C)C)cc1O | 92 to 93 °C
7 | CCOC(=O)C1N=C(c2ccccc2)c2cc(Cl)ccc2NC1=O (centres undefined) | 244 °C
8 | O=C(c1ccc(Cl)cc1)c1cccc(Cl)c1[N+](=O)[O-] | 147 to 148 °C
9 | Cc1c(F)c(F)cc(C#N)c1Cl | 59 to 61 °C
10 | COc1ccc(C(=O)N[C@H]2CCN(C)C[C@H]2c2ccccc2)cc1 (relative stereo) | 165 to 166 °C
11 | Oc1cccc(-c2n[nH]c3ncnc(Nc4cccc(Cl)c4)c23)c1 | 118 to 119 °C
12 | O=C1CCC2CC(O)C(=O)N12 (centres undefined) | 135 to 140 °C
13 | COC(=O)CCCCc1ccc(CN2CCN(c3ccncc3)CC2)cc1 | 53 to 54 °C
14 | O=C(O)c1sc(Cl)nc1-c1ccccc1 | 170 to 171 °C
15 | O=C(NC(CO)CO)c1cnccc1C(F)(F)F | 155 to 156 °C
16 | CCCC12C=CC=C(N3CCC(c4noc5cc(F)ccc45)CC3)C1(O)C(=O)NC2=O (centres undefined) | 162 to 163 °C
17 | COC(=O)c1cc(Cl)c(N)cc1O | 138 to 139 °C
18 | Cc1cccc(N)c1C(=O)Nc1nnn[nH]1 | 248 °C
19 | O=C(Nc1ccc(C(=O)N2CCc3cn[nH]c3-c3sccc32)cc1)c1ccccc1-c1ccccc1 | 280 to 284 °C
20 | Cc1ccc2c(Cl)ccnc2c1[N+](=O)[O-] | 140 to 147 °C
21 | CCCS(=O)(=O)c1cc(C(=O)NCC2CCCN2CC)c(OC)cc1N (centres undefined) | 105 to 106 °C
22 | CCCCCCCCCCCCCCN(c1ccccc1)c1snnc1C(N)=O | 79 to 81 °C
23 | CCOC(=O)c1cc2c(OC=O)c(OC[C@H]3CO3)ccc2[nH]1 | 123 to 125 °C
24 | CCOC(=O)/C(=N\OCC=C(Cl)Cl)c1csc(N)n1 | 135 to 136 °C
25 | CCOc1nc(O)cc(O)n1 | > 250 °C
26 | COc1cccc(-c2ccc(O)cc2)c1 | 93 to 95 °C

Row | SMILES | melting point
27 | NC(=O)NN=Cc1ccc(OC2C3CC4CC(C3)CC2C4)cc1 (centres undefined) | 226 to 228 °C
28 | Cc1nn(-c2cccnc2)c2nc3cc(F)c(F)cc3c(Cl)c12 | 192 to 194 °C
29 | COc1cccc(N(CCN2CCC(C(=O)c3ccc(F)cc3)CC2)C(=O)c2cccc(N)c2)c1 | 141 to 142 °C
30 | O=P(O)(O)OC(Cn1cncn1)(Cn1cncn1)c1ccc(F)cc1F | 223 to 224 °C
31 | O=C(CCCCCN1CCN(c2cccc(OC(F)(F)F)c2)CC1)N1Cc2ccccc2C1 | 89 °C
32 | Cc1ccc([N+](=O)[O-])c(C=C2C(=O)NC(=O)N2C)c1 | 261 to 262 °C
33 | NCCCP(=O)(O)c1ccccc1 | 298 to 300 °C
34 | Cc1ccc(-c2nn(-c3cccc(C(=O)O)c3)c(N)c2C(N)=O)cc1 | 232 to 235 °C
35 | COCCc1nc2c(N)nc3ccccc3c2n1CCOCCN(C(N)=O)c1ccccc1 | 171 to 174 °C
36 | CCOc1ccc(-c2nc(CCl)cs2)cc1OCC | 81.5 to 82.3 °C
37 | O=c1cc(-c2ccccc2)oc2cc(OCC3CO3)ccc12 (centres undefined) | 123 to 130 °C
38 | CCOC(=O)[C@H](O)[C@@H](NC(=O)OC(C)(C)C)c1ccccc1 | 102 °C
39 | O=c1[nH]c2c(c3nc(-c4ccccn4)nn13)CN(Cc1ccccc1)CC2 | 290 °C
40 | CN(C)CC(=O)Nc1cccc(-c2cc(-c3ccccc3O)nc(NC(=O)c3cccs3)c2C#N)c1 | 220 to 221 °C
41 | O=c1c2c([nH]n1-c1ccc(Cl)cc1F)CCCCC2 | 197 to 201 °C
42 | Cc1cc2cnc(OCCc3ccc(OC(C)(C)C)cc3)nc2o1 | 75 °C
43 | COc1ccc(CNc2ccccc2C(=O)Nc2cccc(C(F)(F)F)c2C)cn1 | 134 to 135 °C
44 | CC(=O)Nc1c(OC(C)=O)cc(C)cc1[N+](=O)[O-] | 163 to 165 °C
45 | NS(=O)(=O)c1ccc(-c2cccc(-c3nc(-c4ccc(F)c(F)c4)cc(C(F)(F)F)n3)c2)s1 | 238 °C
46 | O=C1N(CC2CCCO2)c2cc3c(cc2C12COc1cc4c(cc12)CCO4)OCCO3 (centres undefined) | 220 to 225 °C
47 | COc1ccc(CC(C)NCC(O)c2ccccc2Cl)cc1OC (centres undefined) | 113 to 114 °C
48 | CCN(CC)C(=O)COc1cc(-c2ccccc2)cc2ccccc12 | 82 °C
49 | COc1ccc(OC)c(S(=O)(=O)n2c(COC(C)(C)C(=O)O)cc3nc(Cl)ccc32)c1 | 200 °C
50 | CCCn1c(-c2ccccc2)nc2cc(C#N)c(C#N)cc21 | 183 to 185 °C
51 | COc1ccc2cc(S(N)(=O)=O)[nH]c2c1 | 171 to 172 °C
52 | COC(=O)C1=C(O)c2ccccc2S(=O)(=O)N1C | 163 to 165 °C

Row | SMILES | melting point
53 | CCC(CC)Nc1ncnc2c1ncn2C | 107 to 109 °C
54 | COc1ccccc1C1(O)C(=O)Nc2cc(Cl)c(Cl)cc21 (centres undefined) | 245 to 246 °C
55 | Fc1ccc(Cn2c(NC3CCN(CCNc4nccs4)CC3)nc3cncnc32)cc1 | 165 °C
56 | O=c1c2ccccc2ccc2cc(Cl)ccc12 | 160 to 161 °C
57 | NC(=O)c1cc(-c2ccc(Cl)cc2)[nH]c1Cl | > 200 °C
58 | COc1cc(C(=O)P2(=O)Oc3ccccc3-c3ccccc32)cc(OC)c1OC (centres undefined) | 147 to 149 °C
59 | O=C1CSC(c2cccc(Cl)c2)c2cc(C(=O)c3ccc(Cl)cc3)ccc2N1 (centres undefined) | 222 °C
60 | CC(=O)ONc1nc(CC(=O)Nc2cccc(C(F)(F)F)c2)cs1 | 137 to 140 °C
61 | O=C(NC/C=C\COc1cc(CN2CCCCC2)ccn1)c1ccc[nH]1 | 136 to 137 °C
62 | COC(=O)COc1ccc(SCc2cc(-c3ccc(Cl)cc3)no2)c2c1CCC2 | 92 to 94 °C
63 | CCCCN1CCSC1S(=O)(=O)N=NC(=O)Nc1nc(OC)cc(OC)n1 (centres undefined) | 139 to 140 °C
64 | O=c1c2c(n(-c3ccccc3)c3ncccc13)OCC2 | 245 to 247 °C
65 | Cc1cccc(C)c1N(CCCC(=O)O)C(=O)CN(C(=O)c1ccc(Cl)cc1)c1c(C)cccc1C | 214 to 216 °C
66 | COc1ccc(CC(=O)NCC(OC)OC)cc1OC | 60 to 63 °C
67 | CCC1CCCCn2c1nc(-c1ccncn1)cc2=O (racemic) | 128 to 130 °C
68 | CN1c2ccc(Cl)cc2C(c2ccccc2Cl)=Nc2cccnc21 | 150 to 152 °C
69 | Cc1cc(C#N)cc(C)c1OCCCc1cncs1 | 71 to 73 °C
70 | O=C(Nc1ccc(CCNc2ncccn2)cc1)c1cccs1 | 191 to 192 °C
71 | CC(C)N(C[C@H](O)COc1ccc(OCc2ccccc2)cc1)S(C)(=O)=O | 96 to 97 °C
72 | O=CNc1nc2ccc([N+](=O)[O-])cc2s1 | 248 to 251 °C
73 | C[C@]1(COc2ccc3nc(N4CCC(=Cc5ccc(OC(F)(F)F)cc5)CC4)ccc3c2)Cn2cc([N+](=O)[O-])nc2O1 | 194 to 196 °C
74 | CC(C)(C)C1CCC(C2=C(O)C(=O)c3ccccc3C2=O)CC1 (centres undefined) | 123 to 126 °C
75 | O=S(=O)(NCCO)c1cccc(-c2cc(-c3nc(-c4ccc(C(F)(F)F)cc4)cc(C(F)(F)F)n3)ccn2)c1 | 192 °C
76 | CN=CN(C)c1nc(-c2cc(Cl)nc(Cl)c2)cs1 | 145 °C
77 | Fc1cccc(F)c1-c1ccc2cccnc2n1 | 100 to 103 °C
78 | CN=C(SC)N(C)Cc1cccnc1Cl | 106 to 113 °C

Row | SMILES | melting point
79 | C[Si](C)(CCl)c1ccc(-c2ccccc2)cc1 | 30 to 40 °C
80 | O=C1c2ccccc2C(=O)c2c1cccc2N1CCC(C2CCNCC2)CC1 | 155 to 160 °C
81 | CCC(CC)Nc1c([N+](=O)[O-])cc(C(C)C)c(CSC#N)c1[N+](=O)[O-] | 68 to 70 °C
82 | CNC(=O)N1N=C(c2ccc([N+](=O)[O-])c(C)c2)c2cc3c(cc2C=C1C)OCO3 | 246 to 248 °C
83 | Cc1cccc(N=C2NCCN2)c1C | 141 to 144 °C
84 | O=C1c2ccccc2C(O)N1CCCO[N+](=O)[O-] (centres undefined) | 72 to 74 °C
85 | CCOC(=O)c1c(CCn2cncn2)nc2sc3c(c2c1-c1ccc(OC)c(OC)c1)CCN(C(=O)c1ccc(Cl)cc1)C3 | 195 to 197 °C
86 | CCCCNS(=O)(=O)c1ccc2[nH]c(=O)c(=O)[nH]c2c1 | 257 to 262 °C
87 | CC(C)CN1C(=O)[C@@H](CC(=O)O)N=C(c2ccccc2Cl)c2cc(Cl)ccc21 | 175 to 178 °C
88 | CC(C)(O)C(C)(O)Cc1ccccc1 (centres undefined) | 72 to 74 °C
89 | Cn1c(Sc2ccc(C(=O)O)c(Cl)c2)n[nH]c1=O | 236 °C
90 | CCc1ccccc1NC(=O)C(C#N)=CN(C)C | 128 to 130 °C
91 | CC(C)C(=O)Nc1ccc2oc3c(c2c1)CCCC3 | 206 to 208 °C
92 | COc1ccc(CNC=C2C(=O)Nc3cc(OC)c(OC)cc32)cc1OC | 198 to 200 °C
93 | Cc1ccc(-c2ccc3c(c2)C=C(C(=O)Nc2ccc(CO)cc2)CC3)cc1 | 219 to 220 °C
94 | COc1ccc(CCNC(=O)C(=O)NCc2ccccn2)cc1OC1CCCC1 | 141 to 143 °C
95 | CCCCn1c(C)c(Br)c(=O)c(C(=O)Nc2ccc(Br)cc2C)c1C | 190 to 192 °C
96 | C[C@@H](c1ccccc1)N1C[C@H]2CCOC(=O)[C@H]2C1 | 86 to 87 °C
97 | CCCc1nn(C)c2c(=O)[nH]c(Cc3cccc(N)c3)nc12 | 207 to 210 °C
98 | CC(C)(CO)NC(=O)c1nn(C2CCCCO2)cc1NC(=O)c1ccccn1 (centres undefined) | 194 to 195 °C
99 | CCN1C(=O)C(C(=O)Nc2cccc(C(=O)Nc3ccccc3)c2)c2cc(C(C)=O)ccc21 (centres undefined) | 173 to 175 °C
100 | N#CC(=Cc1ccc2[nH]ccc2c1)C(=O)c1ccc(O)c(O)c1 | 185 °C
101 | CCCCCCCCCCCCCCCCCCOc1cc(C(=O)OC)cc([N+](=O)[O-])c1 | 64 to 66 °C
102 | CCCCOc1cc(CCC(=O)O)ccc1-c1cccc(CN(C)C(=O)c2ccc(OC)cc2)c1 | 39 to 41 °C
103 | Cc1ncc2cc(-c3ccccc3Cl)c(N)nc2n1 | 259 to 260 °C
104 | CCC(=O)NC(=O)CCCCBr | 94 to 97 °C
